Consider 24 compounds from patent publication US11174268B2, “Benzenesulfonamide compouds and their use as therapeutic agents” (Xenon Pharmaceuticals Inc., priority 2016, dated 2021).

As usually defined, the IC50 is the concentration needed to halve the response being measured.

For data set [1], the target named is NaV1.1 (Homo sapiens (Human), UniProt P35498). As to the kind of experiment: Sodium Influx Assay (Flux), NaV1.1.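 Note: channels co-expressed with human β1 subunit and held open by modulators, cells exposed to compounds for one hour at room temperature, IC50 from percent inhibition of influx.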 It counts as cell-based. The settings on record: Trex HEK293 cells, ANG2 dye, inactivated state.
The target of data set [2] is NaV1.5 (Homo sapiens (Human), UniProt Q14524). In words: Sodium Influx Assay (Flux), NaV1.5. The note with it: read-out: Flux NaV1.5 IC50; Trex HEK293 cells, ANG2 dye, inactivated state.
Data set [3] has as its target NaV1.6 (Homo sapiens (Human), UniProt Q9UQD0). As to the kind of experiment: Sodium Influx Assay (Flux), NaV1.6.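 Note: Tetracycline-induced cells, compounds applied for one hour at room temperature with modulators holding channels open, IC50 from percent inhibition of sodium influx.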 Type of data set: cell-based. The settings on record: Trex HEK293 cells, ANG2 dye, inactivated state.

Structures can show the parent of a compound that is named as a salt.

Sequence of NaV1.5 (Q14524 other isoform, or with tags, fused parts or gaps): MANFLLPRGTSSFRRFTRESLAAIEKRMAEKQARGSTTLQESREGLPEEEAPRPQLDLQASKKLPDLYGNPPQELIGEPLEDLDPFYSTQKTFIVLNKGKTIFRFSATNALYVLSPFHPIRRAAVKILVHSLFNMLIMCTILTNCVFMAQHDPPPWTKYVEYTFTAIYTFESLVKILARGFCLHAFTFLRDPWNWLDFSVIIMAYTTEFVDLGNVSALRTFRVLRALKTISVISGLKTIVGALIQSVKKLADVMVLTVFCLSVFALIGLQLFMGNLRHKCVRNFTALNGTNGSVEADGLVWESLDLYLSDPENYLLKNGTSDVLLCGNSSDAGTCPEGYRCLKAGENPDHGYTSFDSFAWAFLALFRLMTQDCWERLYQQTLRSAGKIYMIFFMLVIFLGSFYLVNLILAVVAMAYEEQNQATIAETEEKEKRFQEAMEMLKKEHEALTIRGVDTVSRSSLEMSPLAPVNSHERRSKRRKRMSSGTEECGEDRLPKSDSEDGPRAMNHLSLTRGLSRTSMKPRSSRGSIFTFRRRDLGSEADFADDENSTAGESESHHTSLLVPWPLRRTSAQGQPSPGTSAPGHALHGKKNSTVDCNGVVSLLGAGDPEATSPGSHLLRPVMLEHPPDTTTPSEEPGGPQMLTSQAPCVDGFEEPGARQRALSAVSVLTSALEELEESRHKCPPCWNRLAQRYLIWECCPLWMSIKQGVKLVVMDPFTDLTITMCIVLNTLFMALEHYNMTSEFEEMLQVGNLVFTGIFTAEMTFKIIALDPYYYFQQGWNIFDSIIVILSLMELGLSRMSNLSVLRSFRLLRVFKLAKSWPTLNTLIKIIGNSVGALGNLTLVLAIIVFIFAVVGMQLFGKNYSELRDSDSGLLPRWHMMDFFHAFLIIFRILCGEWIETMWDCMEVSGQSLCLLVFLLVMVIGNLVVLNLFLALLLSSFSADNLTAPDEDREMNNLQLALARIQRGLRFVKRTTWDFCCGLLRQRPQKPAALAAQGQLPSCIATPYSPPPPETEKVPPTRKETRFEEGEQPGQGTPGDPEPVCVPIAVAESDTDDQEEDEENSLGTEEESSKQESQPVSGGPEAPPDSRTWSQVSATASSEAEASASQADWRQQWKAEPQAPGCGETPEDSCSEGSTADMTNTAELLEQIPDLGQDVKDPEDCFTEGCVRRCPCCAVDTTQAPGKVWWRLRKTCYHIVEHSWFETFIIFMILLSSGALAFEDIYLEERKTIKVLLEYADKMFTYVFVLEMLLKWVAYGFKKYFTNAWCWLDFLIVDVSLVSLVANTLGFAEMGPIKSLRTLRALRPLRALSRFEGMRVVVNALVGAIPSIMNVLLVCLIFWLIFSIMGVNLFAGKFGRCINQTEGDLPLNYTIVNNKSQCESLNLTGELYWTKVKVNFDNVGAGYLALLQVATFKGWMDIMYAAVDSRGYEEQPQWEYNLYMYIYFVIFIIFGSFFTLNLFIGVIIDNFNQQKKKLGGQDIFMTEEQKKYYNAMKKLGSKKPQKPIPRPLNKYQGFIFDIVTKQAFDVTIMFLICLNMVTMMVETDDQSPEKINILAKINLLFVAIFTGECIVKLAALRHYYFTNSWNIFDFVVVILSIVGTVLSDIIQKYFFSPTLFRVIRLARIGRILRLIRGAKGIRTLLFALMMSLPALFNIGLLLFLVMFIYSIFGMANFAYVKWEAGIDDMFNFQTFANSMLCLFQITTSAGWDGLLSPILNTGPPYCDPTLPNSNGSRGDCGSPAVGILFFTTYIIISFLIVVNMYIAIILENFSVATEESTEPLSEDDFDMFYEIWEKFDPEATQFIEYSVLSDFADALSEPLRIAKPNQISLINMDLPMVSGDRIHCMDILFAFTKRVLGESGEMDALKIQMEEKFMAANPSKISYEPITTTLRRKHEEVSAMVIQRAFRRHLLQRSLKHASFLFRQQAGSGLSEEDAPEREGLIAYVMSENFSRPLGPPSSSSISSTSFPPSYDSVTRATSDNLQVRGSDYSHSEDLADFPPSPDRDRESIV

In the case of `COCc1ccc(F)c([C@H](C)Nc2cc(F)c(S(=O)(=O)Nc3cscn3)cc2Cl)c1` [Example 280, (S)-5-chloro-2-fluoro-4-((1-(2-fluoro-5-(methoxymethyl)phenyl)ethyl)amino)-N-(thiazol-4-yl)benzenesulfonamide], the IC50 in data set [1] is 8.73 µM; in data set [2], 23.9 µM; in data set [3] it was 1.39 µM.

As to `C[C@H](Nc1cc(F)c(S(=O)(=O)Nc2cscn2)cc1Cl)c1cc(OC(F)F)ccc1F` [Example 281, (S)-5-chloro-4-((1-(5-(difluoromethoxy)-2-fluorophenyl)ethyl)amino)-2-fluoro-N-(thiazol-4-yl)benzenesulfonamide], the IC50 in data set [1] amounted to 7.06 µM; in data set [2], 11 µM; in data set [3], 1.07 µM.

With `O=S(=O)(Nc1cscn1)c1cc(Cl)c(NCc2c(F)ccc(F)c2CN2CC3(CCOCC3)C2)cc1F` [Example 282, 4-((2-((7-oxa-2-azaspiro[3.5]nonan-2-yl)methyl)-3,6-difluorobenzyl)amino)-5-chloro-2-fluoro-N-(thiazol-4-yl)benzenesulfonamide 2,2,2-trifluoroacetate], the 50% inhibitory concentration (IC50) worked out at 9.78 µM in data set [1], 6.58 µM in data set [2] and 0.409 µM in data set [3].

`CN(Cc1c(F)ccc(F)c1CN1CCC1)c1cc(F)c(S(=O)(=O)Nc2cscn2)c(F)c1` [Example 284, 4-((2-(azetidin-1-ylmethyl)-3,6-difluorobenzyl)(methyl)amino)-2,6-difluoro-N-(thiazol-4-yl)benzenesulfonamide 2,2,2-trifluoroacetate]: the IC50 amounted to 30 µM in data set [1], 30 µM in data set [2] and 1.37 µM in data set [3].

Regarding `Cc1cccc(CN2CCC2)c1CNc1cc(F)c(S(=O)(=O)Nc2cscn2)c(F)c1` [Example 285, 4-((2-(Azetidin-1-ylmethyl)-6-methylbenzyl)amino)-2,6-difluoro-N-(thiazol-4-yl)benzenesulfonamide formate], the 50% inhibitory concentration (IC50) in data set [1] is 5.89 µM; in data set [2] it was 26.6 µM; in data set [3], 0.625 µM.

For `C[C@H](Nc1cc(F)c(S(=O)(=O)Nc2cscn2)cc1Cl)c1cc(F)c(F)cc1F` [Example 286, (S)-5-chloro-2-fluoro-N-(thiazol-4-yl)-4-((1-(2,4,5-trifluorophenyl)ethyl)amino)benzenesulfonamide], the IC50 in data set [1] is 6.84 µM; in data set [2], 8.78 µM; in data set [3], 3.38 µM.

Take `O=S(=O)(Nc1cscn1)c1c(F)cc(N[C@@H]2C[C@H](N3CCC3)c3ccccc32)cc1F` [Example 289, 4-(((1R,3S)-3-(azetidin-1-yl)-2,3-dihydro-1H-inden-1-yl)amino)-2,6-difluoro-N-(thiazol-4-yl)benzenesulfonamide]: the IC50 in data set [1] came out at 4.27 µM; in data set [2], 30 µM; in data set [3], 0.556 µM.

With `O=S(=O)(Nc1cscn1)c1cc(Cl)c(NCc2c(Cl)cccc2CN2CC3(CNC3)C2)cc1F` [Example 291, 4-((2-((2,6-diazaspiro[3.3]heptan-2-yl)methyl)-6-chlorobenzyl)amino)-5-chloro-2-fluoro-N-(thiazol-4-yl)benzenesulfonamide 2,2,2-trifluoroacetate], the IC50 in data set [1] worked out at 14 µM; in data set [2], 30 µM; in data set [3], 0.368 µM.

Turning to `CN1CC2(C1)CN(Cc1cccc(Cl)c1CNc1cc(F)c(S(=O)(=O)Nc3cscn3)cc1Cl)C2` [Example 292, 5-chloro-4-((2-chloro-6-((6-methyl-2,6-diazaspiro[3.3]heptan-2-yl)methyl)benzyl)amino)-2-fluoro-N-(thiazol-4-yl)benzenesulfonamide 2,2,2-trifluoroacetate], the values for the IC50 in data set [1], in data set [2] and in data set [3] were 2.72 µM, 8.4 µM and 0.624 µM, respectively.

For `O=S(=O)(Nc1ccon1)c1ccc(NCc2c(F)cccc2CN2CCCC2)c(F)c1F` [Example 294, 2,3-difluoro-4-((2-fluoro-6-(pyrrolidin-1-ylmethyl)benzyl)amino)-N-(isoxazol-3-yl)benzenesulfonamide 2,2,2-trifluoroacetate], the values for the IC50 in data set [1], in data set [2] and in data set [3] were 30 µM, 30 µM and 0.688 µM, respectively.

On to `O=S(=O)(Nc1ccc(F)cn1)c1c(F)cc(NCc2c(F)cccc2CN2CCC2)cc1F` [Example 296, 4-((2-(azetidin-1-ylmethyl)-6-fluorobenzyl)amino)-2,6-difluoro-N-(5-fluoropyridin-2-yl)benzenesulfonamide formate], for which the IC50 in data set [1] was found to be 16.9 µM; in data set [2], 30 µM; in data set [3] it was 1.31 µM.

As to `O=S(=O)(Nc1cscn1)c1cc(Cl)c(NCc2c(F)ccc3cc[nH]c23)cc1F` [Example 298, 5-chloro-2-fluoro-4-(((6-fluoro-1H-indol-7-yl)methyl)amino)-N-(thiazol-4-yl)benzenesulfonamide], the half-inhibitory concentration (IC50) in data set [1] came to 7.19 µM; in data set [2] it was 11.3 µM; in data set [3], 0.785 µM.

For `C[C@@H](O)c1cccc(F)c1CNc1cc(F)c(S(=O)(=O)Nc2cscn2)c(F)c1` [Example 299, (R)-2,6-difluoro-4-((2-fluoro-6-(1-hydroxyethyl)benzyl)amino)-N-(thiazol-4-yl)benzenesulfonamide], the IC50 in data set [1] was determined as 0.684 µM; in data set [2], 21.6 µM; in data set [3] it was 3.61 µM.

In the case of `O=S(=O)(Nc1ccon1)c1cc(Cl)c(NCc2c(F)cccc2CN2CCC2)cc1F` [Example 301, 4-((2-(azetidin-1-ylmethyl)-6-fluorobenzyl)amino)-5-chloro-2-fluoro-N-(isoxazol-3-yl)benzenesulfonamide formate], the half-maximal inhibitory concentration (IC50) amounted to 30 µM in data set [1], 30 µM in data set [2] and 0.493 µM in data set [3].

Regarding `O=S(=O)(Nc1cscn1)c1c(F)cc(NCc2c(F)cccc2CN2CCC2)cc1F` [Example 302, 4-((2-(azetidin-1-ylmethyl)-6-fluorobenzyl)amino)-2,6-difluoro-N-(thiazol-4-yl)benzenesulfonamide 2,2,2-trifluoroacetate], the half-maximal inhibitory concentration (IC50) was 9.67 µM in data set [1], 23.9 µM in data set [2] and 0.049 µM in data set [3].

On to `O=S(=O)(Nc1cscn1)c1c(F)cc(NCc2c(F)cccc2CN2CCC2)c(Cl)c1F` [Example 303, 4-((2-(azetidin-1-ylmethyl)-6-fluorobenzyl)amino)-3-chloro-2,6-difluoro-N-(thiazol-4-yl)benzenesulfonamide 2,2,2-trifluoroacetate], for which the IC50 came to 5.73 µM in data set [1], 24.5 µM in data set [2] and 0.007 µM in data set [3].

Take `Cc1c(NCc2ccccc2CN2CCC2(C)C)cc(F)c(S(=O)(=O)Nc2cscn2)c1F` [Example 305, 4-((2-((2,2-dimethylazetidin-1-yl)methyl)benzyl)amino)-2,6-difluoro-3-methyl-N-(thiazol-4-yl)benzenesulfonamide 2,2,2-trifluoroacetate]: the IC50 in data set [1] was 14.2 µM; in data set [2], 30 µM; in data set [3] it was 0.057 µM.

In the case of `Cc1c(NCc2c(F)cccc2CN2CCC2(C)C)ccc(S(=O)(=O)Nc2cscn2)c1F` [Example 306, 4-((2-((2,2-dimethylazetidin-1-yl)methyl)-6-fluorobenzyl)amino)-2-fluoro-3-methyl-N-(thiazol-4-yl)benzenesulfonamide], the values for the concentration for half-maximal inhibition (IC50) in data set [1], in data set [2] and in data set [3] were 18.1 µM, 8.1 µM and 0.241 µM, respectively.

For the compound `O=S(=O)(Nc1cscn1)c1cc(F)c(NCc2c(F)cccc2CN2CCC2)cc1F` [Example 308, 4-((2-(azetidin-1-ylmethyl)-6-fluorobenzyl)amino)-2,5-difluoro-N-(thiazol-4-yl)benzenesulfonamide], the IC50 in data set [1] worked out at 26 µM; in data set [2], 26.4 µM; in data set [3], 0.605 µM.

For `O=S(=O)(Nc1cscn1)c1c(F)cc(NCc2c(Cl)ccc(F)c2CN2CCC2)cc1F` [Example 309, 4-((2-(azetidin-1-ylmethyl)-6-chloro-3-fluorobenzyl)amino)-2,6-difluoro-N-(thiazol-4-yl)benzenesulfonamide 2,2,2-trifluoroacetate], the half-maximal inhibitory concentration (IC50) in data set [1] came to 6.34 µM; in data set [2], 27.6 µM; in data set [3], 0.085 µM.

Regarding `O=S(=O)(Nc1ccncn1)c1c(F)cc(NCc2ccccc2CN2CCC2)cc1F` [Example 311, 4-((2-(azetidin-1-ylmethyl)benzyl)amino)-2,6-difluoro-N-(pyrimidin-4-yl)benzenesulfonamide formate], the concentration for half-maximal inhibition (IC50) in data set [1] is 26.4 µM; in data set [2], 30 µM; in data set [3], 0.219 µM.

As for `Cc1cc(NCc2ccccc2CN2CCC2)c(F)c(F)c1S(=O)(=O)Nc1cscn1` [Example 312, 4-((2-(azetidin-1-ylmethyl)benzyl)amino)-2,3-difluoro-6-methyl-N-(thiazol-4-yl)benzenesulfonamide 2,2,2-trifluoroacetate], the IC50 in data set [1] is 7.26 µM; in data set [2], 9.59 µM; in data set [3], 0.135 µM.

As for `Cc1c(NCc2c(Cl)ccc(F)c2CN2CCC2)cc(F)c(S(=O)(=O)Nc2cscn2)c1F` [Example 313, 4-((2-(azetidin-1-ylmethyl)-6-chloro-3-fluorobenzyl)amino)-2,6-difluoro-3-methyl-N-(thiazol-4-yl)benzenesulfonamide 2,2,2-trifluoroacetate], the 50% inhibitory concentration (IC50) amounted to 3.75 µM in data set [1], 14.3 µM in data set [2] and 0.014 µM in data set [3].

On to `Cc1cc(NCc2c(F)cccc2CN2CC(C)(C)C2)c(F)c(F)c1S(=O)(=O)Nc1cscn1` [Example 314, 4-((2-((3,3-dimethylazetidin-1-yl)methyl)-6-fluorobenzyl)amino)-2,3-difluoro-6-methyl-N-(thiazol-4-yl)benzenesulfonamide 2,2,2-trifluoroacetate], for which the IC50 in data set [1] is 30 µM; in data set [2], 30 µM; in data set [3], 0.032 µM.
